“And” between values parts separate entries of the source, which are not always exact repeats. Equal values may be shown once. One block for each molecule: values may come before it.
Legend:
[1] = molecular target: T1, Human platelet cyclic AMP phosphodiesterase (PDE-3) (Homo sapiens, UniProt Q14432); assay: cAMP PDE-3 inhibitory activity assay; format: biochemical; conditions: 10 minutes at 30° C., n=3 per concentration
T1 construct: Human platelet cyclic AMP phosphodiesterase was prepared; from tissue; host or cells: human platelets
Protocol: Human platelet cyclic AMP phosphodiesterase was prepared according to the method of Alvarez et al. (Mol. Pharmacol. 1986, 29, 554). The PDE incubation medium contained 10 mM Tris-HCl buffer, pH 7.7, 10 mM MgSO4, and 1 μM […] (0.2 μCi) in a total volume of 1.0 mL. Test compounds were dissolved in dimethyl sulfoxide (DMSO) immediately prior to addition to the incubation medium, and the resulting mixture was allowed to stand for 10 minutes prior to the addition of enzyme. Following the addition of PDE, the contents were mixed and incubated for 10 minutes at 30° C. Three assays each were performed for each of five test compound concentrations, the mean of the determinations (n=3) at each concentration was plotted, and IC50 values were determined graphically.

[2] = test system: guinea pig papillary muscle; assay: Contraction-relaxation in guinea pig papillary muscle; format: cell-based; conditions: FIG. 1
Protocol: Male guinea pigs (400–500 g) were killed by cervical dislocation and the hearts were quickly removed, immersed in ice-cold, and oxygenated in Kreb's solution containing 113.1 mM NaCl, 4.6 mM KCl, 2.45 mM CaCl2, 1.2 mM MgCl2, […], and 10.0 mM glucose; pH 7.4 with 95% O2–5% CO2. The ventricles were opened and papillary muscles were removed with chordae tandineae and a base of surrounding tissue intact. The tendinous ends of the muscles were ligated with silk thread, and the muscles were mounted in vertical, double-jacketed organ baths containing 10 mL of oxygenated Kreb's solution kept at 37° C. […]
Following a 45-minute equilibration period under a 1 gram tension, control contractions were elicited by stimulating the muscle using stainless steel field electrodes at a frequency of 1.0 Hz, 2.0 ms duration. […] Control contraction-relaxation cycles were recorded for 30 seconds continuously. […] A series of washout contractions was recorded following a change of solution. When the amplitude of contraction returned to that measured in control conditions, a single concentration of positive control was then tested on the tissue in the same manner as Compound 5 and milrinone.
Contraction amplitude as well as the time courses of contraction and relaxation were quantified. […]

[3] = test system: paced dog model of congestive heart failure; assay: Paced dog model of congestive heart failure; format: in vivo; conditions: for ventricular tachycardia: all tested dosages
Protocol: Compound 8 was evaluated in a paced dog model of congestive heart failure. Pacing-induced heart failure in the dog produces alterations in heart physiology and molecular signaling similar to what is seen in the failing human heart, making this an appropriate model to test compounds that can potentially improve calcium homeostasis and heart failure physiology. Heart failure was induced by increasing the heart rate to 220–240 beats per minute (bpm) for a six week period. The degree of heart failure was documented by both pressure measurements and echocardiogram (changes in contractility, ejection fraction, ventricular relaxation, fractional area shortening, isovolumic relaxation time). Compound 8 or the milrinone were administered following the induction of heart failure.

T1 sequence (Q14432 whole entry): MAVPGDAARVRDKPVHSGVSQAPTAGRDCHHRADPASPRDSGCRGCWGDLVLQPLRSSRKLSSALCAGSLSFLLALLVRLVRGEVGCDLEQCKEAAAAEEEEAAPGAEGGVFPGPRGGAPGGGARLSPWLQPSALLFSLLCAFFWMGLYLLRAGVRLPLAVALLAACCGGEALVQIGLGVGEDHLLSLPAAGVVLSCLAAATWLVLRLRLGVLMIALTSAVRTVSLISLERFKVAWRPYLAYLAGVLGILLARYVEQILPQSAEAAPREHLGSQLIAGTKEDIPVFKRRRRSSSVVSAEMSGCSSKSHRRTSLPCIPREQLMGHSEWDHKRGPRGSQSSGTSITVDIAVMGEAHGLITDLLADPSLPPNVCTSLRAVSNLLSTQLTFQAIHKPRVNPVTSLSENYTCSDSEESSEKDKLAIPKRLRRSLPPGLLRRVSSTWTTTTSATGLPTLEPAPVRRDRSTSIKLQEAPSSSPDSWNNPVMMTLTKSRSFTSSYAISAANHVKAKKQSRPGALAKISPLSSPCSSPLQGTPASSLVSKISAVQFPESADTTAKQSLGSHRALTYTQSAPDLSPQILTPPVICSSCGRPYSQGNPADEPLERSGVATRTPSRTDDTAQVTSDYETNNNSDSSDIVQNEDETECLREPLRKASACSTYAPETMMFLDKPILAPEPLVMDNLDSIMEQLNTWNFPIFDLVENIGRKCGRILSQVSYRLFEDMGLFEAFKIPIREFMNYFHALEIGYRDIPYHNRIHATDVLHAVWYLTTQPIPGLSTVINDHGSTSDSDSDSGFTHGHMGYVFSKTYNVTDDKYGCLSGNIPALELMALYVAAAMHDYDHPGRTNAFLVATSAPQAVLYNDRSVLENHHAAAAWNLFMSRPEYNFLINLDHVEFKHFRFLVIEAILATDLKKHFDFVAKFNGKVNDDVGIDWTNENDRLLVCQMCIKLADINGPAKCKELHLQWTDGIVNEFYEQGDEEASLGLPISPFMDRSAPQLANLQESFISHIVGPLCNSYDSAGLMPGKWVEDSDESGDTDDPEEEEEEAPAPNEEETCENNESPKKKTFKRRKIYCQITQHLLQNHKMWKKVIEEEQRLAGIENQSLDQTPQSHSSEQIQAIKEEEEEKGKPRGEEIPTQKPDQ

SMILES: CCOC(=O)C1=C(COCCNC(=O)CCCOc2ccc3[nH]c(=O)ccc3c2)NC(C)=C(C(=O)OC)C1c1ccccc1Cl (stereo not drawn) [Compound 5, methyl 4-(2-chlorophenyl)-5-(ethoxycarbonyl)-2-methyl-6-({2-[4-(2-oxo(6-hydroquinolyloxy))butanoylamino]ethoxy}methyl)-1,4-dihydropyridine-3-carboxylate]
IC50 [1]: 300 nM
inotropic effect (muscle contractility) ([2]; cumulative concentrations, stimulated at 1.0 Hz): positive inotropic effect (increase in muscle contractility) in a dose-dependent manner
maximum increase in contractility compared with milrinone ([2]; guinea pig papillary muscle): less than the maximum increase produced by milrinone

IC50 [1]: 270 nM and 110 nM
SMILES: COC(=O)C1=C(C)NC(COCCNC(=O)CCCOc2ccc3[nH]c(=O)ccc3c2)=C(C(=O)OC)C1c1ccccc1[N+](=O)[O-] (stereo not drawn) [Compound 6, methyl 5-(methoxycarbonyl)-2-methyl-4-(2-nitrophenyl)-6-({2-[4-(2-oxo(6-hydroquinolyloxy))butanoylamino]ethoxy}methyl)-1,4-dihydropyridine-3-carboxylate]

IC50 [1]: 340 nM and 420 nM
SMILES: COC(=O)C1=C(C)NC(COCCCOc2ccc3[nH]c(=O)ccc3c2)=C(C(=O)OC)C1c1ccccc1Cl (stereo not drawn) [Compound 7, methyl 4-(2-chlorophenyl)-5-(methoxycarbonyl)-2-methyl-6-{[3-(2-oxo(6-hydroquinolyloxy))propoxy]methyl}-1,4-dihydropyridine-3-carboxylate]

IC50 [1]: 80 nM
ventricular tachycardia ([3]; dogs in heart failure): no ventricular tachycardia
SMILES: COC(=O)C1=C(C)NC(COCCNC(=O)COc2ccc(C3=NNC(=O)CC3)cc2Cl)=C(C(=O)OC)C1c1ccccc1Cl (stereo not drawn) [Compound 8, methyl 6-[(2-{2-[2-chloro-4-(6-oxo(1,4,5-trihydropyridazin-3-yl))phenoxy]acetylamino}ethoxy)methyl]-4-(2-chlorophenyl)-5-(methoxycarbonyl)-2-methyl-1,4-dihydropyridine-3-carboxylate]
contractility (dp/dt max) and ejection fraction, maximal increase relative to that produced by milrinone ([3]; % of that produced by milrinone, FIG. 2): 53–61%
ventricular relaxation (dp/dt min, Tau and isovolumic relaxation time), maximal increase relative to that produced by milrinone ([3]; % of that produced by milrinone, FIG. 3): 63–88%
contractility (dp/dt max) and ejection fraction ([3]; dogs in heart failure, FIG. 2): dose-dependent response
ventricular relaxation (dp/dt min, Tau and isovolumic relaxation time) ([3]; dogs in heart failure, FIG. 3): increased ventricular relaxation in a dose-dependent manner
in vivo inhibition of PDE-3 and calcium channel antagonism ([3]; systemic administration, dogs in heart failure): demonstrated in vivo inhibition of PDE-3 and calcium channel antagonism
QT prolongation ([3]; under acute conditions): no apparent QT prolongation

IC50 [1]: 48 nM
SMILES: CCOC(=O)C1=C(COCCNC(=O)COc2ccc(C3=NNC(=O)CC3)cc2Cl)NC(C)=C(C(=O)OC)C1c1ccccc1Cl (stereo not drawn) [Compound 9, methyl 6-[(2-{2-[2-chloro-4-(6-oxo(1,4,5-trihydropyridazin-3-yl))phenoxy]acetylamino}ethoxy)methyl]-4-(2-chlorophenyl)-5-(ethoxycarbonyl)-2-methyl-1,4-dihydropyridine-3-carboxylate]

IC50 [1]: 270 nM
SMILES: COC(=O)C1=C(C)NC(COCCNC(=O)CCCOc2ccc3[nH]c(=O)ccc3c2)=C(C(=O)OC)C1c1ccccc1Cl (stereo not drawn) [Compound 10, methyl 4-(2-chlorophenyl)-5-(methoxycarbonyl)-2-methyl-6-({2-[4-(2-oxo(6-hydroquinolyloxy))butanoylamino]ethoxy}methyl)-1,4-dihydropyridine-3-carboxylate]

IC50 [1]: 100 nM
SMILES: CCOC(=O)C1=C(COCCNC(=O)COc2ccc3[nH]c(=O)ccc3c2)NC(C)=C(C(=O)OC)C1c1ccccc1Cl (stereo not drawn) [Compound 11, methyl 4-(2-chlorophenyl)-5-(ethoxycarbonyl)-2-methyl-6-({2-[2-(2-oxo(6-hydroquinolyloxy))acetylamino]ethoxy}methyl)-1,4-dihydropyridine-3-carboxylate]

IC50 [1]: 240 nM
SMILES: COC(=O)C1=C(C)NC(COCCNC(=O)COc2ccc3[nH]c(=O)ccc3c2)=C(C(=O)OC)C1c1ccccc1Cl (stereo not drawn) [Compound 12, methyl 4-(2-chlorophenyl)-5-(methoxycarbonyl)-2-methyl-6-({2-[2-(2-oxo(6-hydroquinolyloxy))acetylamino]ethoxy}methyl)-1,4-dihydropyridine-3-carboxylate]

ventricular tachycardia ([3]; dogs in heart failure): demonstrated ventricular tachycardia
SMILES: Cc1[nH]c(=O)c(C#N)cc1-c1ccncc1 [milrinone, reference compound]

From US7098211B2, “Compounds having simultaneous ability to block L-type calcium channels and to inhibit phosphodiesterase type 3 activity” (Artesian Therapeutics, Inc., priority 2002, dated 2006)
